Reference: patent publication US8906944B2, “Compounds as tyrosine kinase modulators” (Allergan, Inc., priority 2009, dated 2014)

Tests used:
[1] = target: T1, human VEGF receptor (VEGFR-2) (Homo sapiens, UniProt P35968); assay: VEGFR2 kinase assay; format: biochemical; details: His-VEGFR-2 cytoplasmic domain, 3.6 μM ATP; Table IV, amide or urea linker; read-out: VEGFR2 Enzyme IC50
T1 construct: The cytoplasmic domain of the human VEGF receptor (VEGFR-2) was expressed; His; made in house; host or cells: insect cells (baculovirus)
T1 sequence (P35968 786-1356 limits assumed): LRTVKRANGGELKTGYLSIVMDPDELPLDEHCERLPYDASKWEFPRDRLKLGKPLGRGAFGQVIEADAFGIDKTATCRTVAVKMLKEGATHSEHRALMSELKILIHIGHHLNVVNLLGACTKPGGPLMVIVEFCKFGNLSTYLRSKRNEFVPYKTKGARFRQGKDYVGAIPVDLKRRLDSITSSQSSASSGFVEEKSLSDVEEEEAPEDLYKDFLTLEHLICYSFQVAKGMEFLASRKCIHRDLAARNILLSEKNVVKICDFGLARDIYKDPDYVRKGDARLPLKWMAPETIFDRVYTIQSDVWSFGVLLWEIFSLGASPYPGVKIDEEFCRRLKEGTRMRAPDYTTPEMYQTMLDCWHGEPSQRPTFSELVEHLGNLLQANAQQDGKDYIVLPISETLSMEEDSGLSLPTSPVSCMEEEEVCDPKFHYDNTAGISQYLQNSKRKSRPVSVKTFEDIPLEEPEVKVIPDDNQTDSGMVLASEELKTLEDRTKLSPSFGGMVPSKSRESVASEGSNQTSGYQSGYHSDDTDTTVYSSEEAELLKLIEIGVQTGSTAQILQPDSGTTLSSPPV
In short: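 His-tagged VEGFR-2 cytoplasmic domain from baculovirus-infected insect cells phosphorylating plate-bound poly-Glu-Tyr (4:1). IC50 from blank-subtracted optical density versus compound concentration.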

PDGFβ = PDGFβ (Homo sapiens, UniProt P09619); assay: PDGFβ enzyme assay; format: biochemical; details: Table IV, amide or urea linker
PDGFβ, sequence (P09619 33-1106): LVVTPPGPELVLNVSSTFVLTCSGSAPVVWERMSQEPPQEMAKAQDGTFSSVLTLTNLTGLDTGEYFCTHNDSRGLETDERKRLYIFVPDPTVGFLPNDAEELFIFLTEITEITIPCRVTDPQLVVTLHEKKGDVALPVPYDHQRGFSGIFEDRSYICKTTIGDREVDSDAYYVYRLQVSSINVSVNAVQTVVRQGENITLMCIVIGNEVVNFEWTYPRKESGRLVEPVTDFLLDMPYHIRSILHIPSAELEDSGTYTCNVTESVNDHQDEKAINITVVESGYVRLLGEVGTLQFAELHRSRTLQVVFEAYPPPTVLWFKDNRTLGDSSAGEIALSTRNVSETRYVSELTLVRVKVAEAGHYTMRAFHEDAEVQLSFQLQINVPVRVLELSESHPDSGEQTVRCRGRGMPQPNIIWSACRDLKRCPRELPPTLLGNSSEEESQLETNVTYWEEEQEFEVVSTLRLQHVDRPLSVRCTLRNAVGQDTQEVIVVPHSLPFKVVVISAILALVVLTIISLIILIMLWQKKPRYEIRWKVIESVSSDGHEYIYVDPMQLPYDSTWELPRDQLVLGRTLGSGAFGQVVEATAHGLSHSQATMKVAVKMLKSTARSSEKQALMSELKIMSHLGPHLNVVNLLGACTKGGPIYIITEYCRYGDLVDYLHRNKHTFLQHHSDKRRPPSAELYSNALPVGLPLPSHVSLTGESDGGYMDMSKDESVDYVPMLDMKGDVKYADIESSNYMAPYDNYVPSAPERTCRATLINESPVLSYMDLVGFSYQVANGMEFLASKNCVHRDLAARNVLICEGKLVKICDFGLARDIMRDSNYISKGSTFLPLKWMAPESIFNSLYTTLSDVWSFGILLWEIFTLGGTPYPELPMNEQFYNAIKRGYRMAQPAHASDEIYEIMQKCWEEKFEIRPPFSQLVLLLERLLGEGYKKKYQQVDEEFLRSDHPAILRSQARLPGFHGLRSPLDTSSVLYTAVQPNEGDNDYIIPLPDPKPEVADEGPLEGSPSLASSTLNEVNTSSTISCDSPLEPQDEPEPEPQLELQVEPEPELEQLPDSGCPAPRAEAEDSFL

VEGFR2 = VEGFR2 (Homo sapiens, UniProt P35968); assay: VEGF stimulated Ca++ signal in vitro (FLIPR)
VEGFR2, sequence (P35968 20-1356): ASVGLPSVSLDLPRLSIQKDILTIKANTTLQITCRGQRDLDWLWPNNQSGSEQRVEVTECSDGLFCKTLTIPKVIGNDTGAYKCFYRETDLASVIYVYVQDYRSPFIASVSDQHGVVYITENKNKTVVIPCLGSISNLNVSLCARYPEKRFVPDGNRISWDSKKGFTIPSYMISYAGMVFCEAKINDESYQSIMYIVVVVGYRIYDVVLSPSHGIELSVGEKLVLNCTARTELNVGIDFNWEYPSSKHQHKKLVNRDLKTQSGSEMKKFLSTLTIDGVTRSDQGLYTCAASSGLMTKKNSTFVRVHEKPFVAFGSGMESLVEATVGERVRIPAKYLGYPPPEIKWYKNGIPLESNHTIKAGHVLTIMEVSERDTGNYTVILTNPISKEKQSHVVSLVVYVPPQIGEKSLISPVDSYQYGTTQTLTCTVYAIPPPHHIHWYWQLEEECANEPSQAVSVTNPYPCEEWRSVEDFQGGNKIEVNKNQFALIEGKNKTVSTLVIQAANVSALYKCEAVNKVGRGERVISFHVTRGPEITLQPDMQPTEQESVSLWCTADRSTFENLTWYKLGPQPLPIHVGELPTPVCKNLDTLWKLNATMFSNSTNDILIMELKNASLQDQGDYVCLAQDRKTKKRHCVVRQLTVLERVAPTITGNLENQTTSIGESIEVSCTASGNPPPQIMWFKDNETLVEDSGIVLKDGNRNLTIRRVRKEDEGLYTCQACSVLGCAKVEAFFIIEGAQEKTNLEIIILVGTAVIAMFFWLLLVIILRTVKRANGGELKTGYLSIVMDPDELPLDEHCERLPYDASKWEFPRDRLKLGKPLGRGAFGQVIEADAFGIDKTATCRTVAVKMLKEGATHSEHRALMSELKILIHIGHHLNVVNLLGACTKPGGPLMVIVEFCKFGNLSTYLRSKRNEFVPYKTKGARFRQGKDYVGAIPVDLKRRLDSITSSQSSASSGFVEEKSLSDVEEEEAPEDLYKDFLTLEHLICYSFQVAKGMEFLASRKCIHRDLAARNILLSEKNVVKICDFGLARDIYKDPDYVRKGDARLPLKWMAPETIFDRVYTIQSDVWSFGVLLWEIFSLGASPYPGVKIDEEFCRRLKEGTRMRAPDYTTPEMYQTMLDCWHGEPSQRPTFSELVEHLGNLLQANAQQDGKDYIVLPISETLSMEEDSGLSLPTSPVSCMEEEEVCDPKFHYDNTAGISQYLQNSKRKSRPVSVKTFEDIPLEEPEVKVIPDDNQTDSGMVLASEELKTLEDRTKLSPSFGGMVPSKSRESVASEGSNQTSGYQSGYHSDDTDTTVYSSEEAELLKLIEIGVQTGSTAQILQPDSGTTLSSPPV
Description: VEGF Stimulated Ca^++Signal in Vitro
Automated FLIPR (Fluorometric Imaging Plate Reader) technology was used to screen for inhibitors of VEGF induced increases in intracellular calcium levels in fluorescent dye loaded endothelial cells. HUVEC (human umbilical vein endothelial cells) (Clonetics) were seeded in 96-well fibronectin coated black-walled plates overnight at 37 degree. C./5% CO2. […] C. Cells were washed 4 times (Original Cell Wash, Labsystems) to remove extracellular dye. […] Data were generated by determining max-min fluorescence levels for unstimulated, stimulated, and drug treated samples. IC50 values for test compounds were calculated from % inhibition of VEGF stimulated responses in the absence of inhibitor.

VEGFR1 = VEGFR1 (Homo sapiens, UniProt P17948); assay: VEGFR1 enzyme assay; format: biochemical; details: Table IV, amide or urea linker
VEGFR1, sequence (P17948 27-1338, species assumed): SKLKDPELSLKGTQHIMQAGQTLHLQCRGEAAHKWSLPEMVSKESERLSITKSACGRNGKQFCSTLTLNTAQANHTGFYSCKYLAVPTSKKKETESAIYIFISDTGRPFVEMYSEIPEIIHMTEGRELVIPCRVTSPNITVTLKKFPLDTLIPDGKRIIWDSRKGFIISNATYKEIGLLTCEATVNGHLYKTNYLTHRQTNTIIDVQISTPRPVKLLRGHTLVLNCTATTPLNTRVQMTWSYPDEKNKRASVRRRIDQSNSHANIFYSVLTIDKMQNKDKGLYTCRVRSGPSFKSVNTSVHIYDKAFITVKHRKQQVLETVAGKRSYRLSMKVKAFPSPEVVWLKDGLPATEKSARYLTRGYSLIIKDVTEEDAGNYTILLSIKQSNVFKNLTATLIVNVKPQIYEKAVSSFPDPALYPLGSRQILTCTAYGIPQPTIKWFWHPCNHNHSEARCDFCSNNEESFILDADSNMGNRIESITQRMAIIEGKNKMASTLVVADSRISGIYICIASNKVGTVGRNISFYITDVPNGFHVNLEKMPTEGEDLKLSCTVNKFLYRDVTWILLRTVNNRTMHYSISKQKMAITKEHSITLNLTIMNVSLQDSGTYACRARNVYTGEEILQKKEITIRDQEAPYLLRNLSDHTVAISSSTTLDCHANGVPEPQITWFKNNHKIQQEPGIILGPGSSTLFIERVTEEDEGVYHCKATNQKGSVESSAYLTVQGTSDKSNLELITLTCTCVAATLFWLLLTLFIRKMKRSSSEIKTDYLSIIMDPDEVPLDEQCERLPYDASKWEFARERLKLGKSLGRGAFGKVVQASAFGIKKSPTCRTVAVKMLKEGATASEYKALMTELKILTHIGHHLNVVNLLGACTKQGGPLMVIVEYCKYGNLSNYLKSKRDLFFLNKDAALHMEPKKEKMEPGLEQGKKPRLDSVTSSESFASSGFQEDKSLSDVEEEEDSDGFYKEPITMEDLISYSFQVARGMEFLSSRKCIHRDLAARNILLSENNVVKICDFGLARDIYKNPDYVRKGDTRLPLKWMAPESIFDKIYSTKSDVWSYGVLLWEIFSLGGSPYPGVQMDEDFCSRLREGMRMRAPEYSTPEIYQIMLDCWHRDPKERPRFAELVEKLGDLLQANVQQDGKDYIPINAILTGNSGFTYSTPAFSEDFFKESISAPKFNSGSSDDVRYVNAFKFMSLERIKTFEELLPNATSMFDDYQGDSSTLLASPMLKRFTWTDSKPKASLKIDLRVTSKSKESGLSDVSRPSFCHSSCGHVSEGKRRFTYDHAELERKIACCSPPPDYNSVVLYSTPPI

IC50 [1] | IC50 (PDGFβ) | IC50 (VEGFR2) | IC50 (VEGFR1) | SMILES
19 nM | 28 nM | 4 nM | – | Cc1cccc(NC(=O)Nc2ccc(Oc3ccnc(-c4cc(C(=O)NN)c[nH]4)c3)cc2)c1 [Example 238, 1-[4-({2-[4-(hydrazinocarbonyl)-1H-pyrrol-2-yl]pyridin-4-yl}oxy)phenyl]-3-(3-methylphenyl)urea]
7 nM | 18 nM | 8 nM | 8 nM | COC(=O)CC[C@H](NC(=O)c1c[nH]c(-c2cc(Oc3ccc(NC(=O)Nc4cc(C)ccc4F)c(F)c3)ccn2)c1)C(=O)OC [Example 270, dimethyl 2-{[(5-{4-[3-fluoro-4-({[(2-fluoro-5-methylphenyl)amino]carbonyl}amino)phenoxy]pyridin-2-yl}-1H-pyrrol-3-yl)carbonyl]amino}pentanedioate]
21 nM | 23 nM | 1 nM | – | COC(=O)CCNC(=O)c1cc(-c2cc(Oc3ccc(NC(=O)Nc4cc(C)ccc4F)cc3)ccn2)cs1 [Example 279, methyl 3-{[(4-{4-[4-({[(2-fluoro-5-methylphenyl)amino]carbonyl}amino)phenoxy]pyridin-2-yl}-2-thienyl)carbonyl]amino}propanoate]
9 nM | 22 nM | 5 nM | – | COCCOC(=O)CCCNC(=O)c1c[nH]c(-c2cc(Oc3ccc(NC(=O)Nc4cc(C)ccc4F)cc3)ccn2)c1 [Example 233, 2-methoxyethyl 4-{[(5-{4-[4-({[(2-fluoro-5-methylphenyl)amino]carbonyl}amino)phenoxy]pyridin-2-yl}-1H-pyrrol-3-yl)carbonyl]amino}butanoate]
7 nM | 16 nM | 2 nM | – | Cc1cccc(NC(=O)Nc2ccc(Oc3ccnc(-c4cc(C(=O)NCCCN5CCOCC5)c[nH]4)c3)cc2)c1 [Example 239, 5-{4-[4-({[(3-methylphenyl)amino]carbonyl}amino)phenoxy]pyridin-2-yl}-N-(3-morpholin-4-ylpropyl)-1H-pyrrole-3-carboxamide]
5 nM | 21 nM | 10 nM | 10 nM | COC(=O)[C@@H]1C[C@@H](O)CN1CCCNC(=O)c1c[nH]c(-c2cc(Oc3ccc(NC(=O)Nc4cc(C)ccc4F)c(F)c3)ccn2)c1 (relative stereo) [Example 217, methyl rel-(2R,4S)-1-(3-{[(5-{4-[3-fluoro-4-({[(2-fluoro-5-methylphenyl)amino]carbonyl}amino)phenoxy]pyridin-2-yl}-1H-pyrrol-3-yl)carbonyl]amino}propyl)-4-hydroxypyrrolidine-2-carboxylate]
56 nM | 157 nM | – | 28 nM | Cc1ccc(F)c(NC(=O)c2ccc(F)c(Oc3ccnc(-c4cc(C(=O)N[C@@H](CCC(=O)O)C(=O)O)c[nH]4)c3)c2)c1 (stereo in doubt) [Example 248, 2-[({5-[4-(2-fluoro-5-{[(2-fluoro-5-methylphenyl)amino]carbonyl}phenoxy)pyridin-2-yl]-1H-pyrrol-3-yl}carbonyl)amino]pentanedioic acid]
24 nM | 54 nM | – | 8 nM | Cc1ccc(F)c(NC(=O)Nc2ccc(Oc3ccnc(-c4cc(C(=O)NCCCN)c[nH]4)c3)cc2)c1 [Example 250, N-(3-aminopropyl)-5-{4-[4-({[(2-fluoro-5-methylphenyl)amino]carbonyl}amino)phenoxy]pyridin-2-yl}-1H-pyrrole-3-carboxamide]
13 nM | 16 nM | – | 12 nM | Cc1ccc(F)c(NC(=O)Nc2ccc(Oc3ccnc(-c4cc(C(=O)NCCCN)c[nH]4)c3)cc2F)c1 [Example 223, N-(3-aminopropyl)-5-{4-[3-fluoro-4-({[(2-fluoro-5-methylphenyl)amino]carbonyl}amino)phenoxy]pyridin-2-yl}-1H-pyrrole-3-carboxamide]

Further lines, the molecule ahead of its results:

SMILES | IC50 [1] | IC50 (PDGFβ) | IC50 (VEGFR2) | IC50 (VEGFR1)
COC(=O)CNCCNC(=O)c1c[nH]c(-c2cc(Oc3ccc(NC(=O)Nc4cc(C)ccc4F)cc3)ccn2)c1 [Example 155, methyl [(2-{[(5-{4-[4-({[(2-fluoro-5-methylphenyl)amino]carbonyl}amino)phenoxy]pyridin-2-yl}-1H-pyrrol-3-yl)carbonyl]amino}ethyl)amino]acetate] | 8 nM | 20 nM | 4 nM | 7 nM
Cc1ccoc1C(=O)Nc1cc(Oc2ccnc(-c3cc(C(=O)NCCCN4CCC(O)CC4)c[nH]3)c2)ccc1F [Example 189, 5-(4-{4-fluoro-3-[(3-methyl-2-furoyl)amino]phenoxy}pyridin-2-yl)-N-[3-(4-hydroxypiperidin-1-yl)propyl]-1H-pyrrole-3-carboxamide] | 34 nM | – | 15 nM | 37 nM
CCOC(=O)N1CCN(CCNC(=O)c2c[nH]c(-c3cc(Oc4ccc(NC(=O)Nc5cc(C)ccc5F)c(F)c4)ccn3)c2)CC1 [Example 168, ethyl 4-(2-{[(5-{4-[3-fluoro-4-({[(2-fluoro-5-methylphenyl)amino]carbonyl}amino)phenoxy]pyridin-2-yl}-1H-pyrrol-3-yl)carbonyl]amino}ethyl)piperazine-1-carboxylate] | 10 nM | 12 nM | 11 nM | 17 nM
CCOC(=O)CN1CCN(CCNC(=O)c2c[nH]c(-c3cc(Oc4ccc(NC(=O)Nc5cc(C)ccc5F)cc4)ccn3)c2)CC1 [Example 157, ethyl [4-(2-{[(5-{4-[4-({[(2-fluoro-5-methylphenyl)amino]carbonyl}amino)phenoxy]pyridin-2-yl}-1H-pyrrol-3-yl)carbonyl]amino}ethyl)piperazin-1-yl]acetate] | 10 nM | 39 nM | 3 nM | 8 nM
COC(=O)CN(CCNC(=O)c1c[nH]c(-c2cc(Oc3ccc(NC(=O)Nc4cc(C)ccc4F)cc3)ccn2)c1)CC(=O)OC [Example 156, dimethyl 2,2′-[(2-{[(5-{4-[4-({[(2-fluoro-5-methylphenyl)amino]carbonyl}amino)phenoxy]pyridin-2-yl}-1H-pyrrol-3-yl)carbonyl]amino}ethyl)imino]diacetate] | 11 nM | 31 nM | 9 nM | 8 nM
CCOC(=O)N1CCN(CCCNC(=O)c2c[nH]c(-c3cc(Oc4cc(C(=O)Nc5cc(C)ccc5F)ccc4F)ccn3)c2)CC1 [Example 171, ethyl 4-{3-[({5-[4-(2-fluoro-5-{[(2-fluoro-5-methylphenyl)amino]carbonyl}phenoxy)pyridin-2-yl]-1H-pyrrol-3-yl}carbonyl)amino]propyl}piperazine-1-carboxylate] | 23 nM | 33 nM | 21 nM | 91 nM
COC(=O)[C@@H]1C[C@@H](O)CN1CCCNC(=O)c1c[nH]c(-c2cc(Oc3ccc(NC(=O)Nc4cc(C)ccc4F)cc3)ccn2)c1 (relative stereo) [Example 164, methyl rel-(2R,4S)-1-(3-{[(5-{4-[4-({[(2-fluoro-5-methylphenyl)amino]carbonyl}amino)phenoxy]pyridin-2-yl}-1H-pyrrol-3-yl)carbonyl]amino}propyl)-4-hydroxypyrrolidine-2-carboxylate] | 9 nM | 17 nM | 5 nM | 10 nM
COC(=O)CNCCCNC(=O)c1c[nH]c(-c2cc(Oc3ccc(NC(=O)Nc4cc(C)ccc4F)cc3)ccn2)c1 [Example 154, methyl [(3-{[(5-{4-[4-({[(2-fluoro-5-methylphenyl)amino]carbonyl}amino)phenoxy]pyridin-2-yl}-1H-pyrrol-3-yl)carbonyl]amino}propyl)amino]acetate] | 7 nM | 15 nM | 14 nM | 8 nM
COC(=O)[C@@H]1CCCN1CCCNC(=O)c1c[nH]c(-c2cc(Oc3ccc(F)c(NC(=O)c4occc4C)c3)ccn2)c1 [Example 188, methyl 1-[3-({[5-(4-{4-fluoro-3-[(3-methyl-2-furoyl)amino]phenoxy}pyridin-2-yl)-1H-pyrrol-3-yl]carbonyl}amino)propyl]pyrrolidine-2-carboxylate] | 27 nM | – | 5 nM | 32 nM
Cc1ccc(F)c(NC(=O)Nc2ccc(Oc3ccnc(-c4cc(C(=O)NCCCN(C)CC(O)CO)c[nH]4)c3)cc2F)c1 (stereo not drawn) [Example 195, N-{3-[(2,3-dihydroxypropyl)(methyl)amino]propyl}-5-{4-[3-fluoro-4-({[(2-fluoro-5-methylphenyl)amino]carbonyl}amino)phenoxy]pyridin-2-yl}-1H-pyrrole-3-carboxamide] | 7 nM | 19 nM | – | 9 nM
COC(=O)CNCCNC(=O)c1c[nH]c(-c2cc(Oc3cc(C(=O)Nc4cc(C)ccc4F)ccc3F)ccn2)c1 [Example 181, methyl ({2-[({5-[4-(2-fluoro-5-{[(2-fluoro-5-methylphenyl)amino]carbonyl}phenoxy)pyridin-2-yl]-1H-pyrrol-3-yl}carbonyl)amino]ethyl}amino)acetate] | 22 nM | 132 nM | – | 65 nM
COC(=O)CNCCCNC(=O)c1c[nH]c(-c2cc(Oc3cc(C(=O)Nc4cc(C)ccc4F)ccc3F)ccn2)c1 [Example 180, methyl ({3-[({5-[4-(2-fluoro-5-{[(2-fluoro-5-methylphenyl)amino]carbonyl}phenoxy)pyridin-2-yl]-1H-pyrrol-3-yl}carbonyl)amino]propyl}amino)acetate] | 14 nM | 53 nM | – | 32 nM
Cc1ccoc1C(=O)Nc1cc(Oc2ccnc(-c3cc(C(=O)NCCCN4CCN(C)CC4)c[nH]3)c2)ccc1F [Example 193, 5-(4-{4-fluoro-3-[(3-methyl-2-furoyl)amino]phenoxy}pyridin-2-yl)-N-[3-(4-methylpiperazin-1-yl)propyl]-1H-pyrrole-3-carboxamide] | 31 nM | – | 11 nM | 35 nM
